Values joined by “and” are separate entries in the source; they are usually repeats but may differ in a detail not shown here. Equal values may be shown once. Inconclusive results and toxic doses are left out. Rule for the calls: active = survival T/C of 150% or more; inactive = T/C below 125% in these data.
Test system: CD2F1 mice, L1210 leukemia ip, survival T/C
Experiment: NCI In Vivo Anticancer Drug Screen. Data for tumor model L1210 Leukemia (intraperitoneal) in CD2F1 (CDF1) mice
Conditions: higher = longer survival
In short: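 Activity against a transplanted murine tumor was judged by comparing the compound group with a vehicle group. The outcome in the treated animals was divided by that in the controls.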

[1] = endpoint: mean survival time, dose: 100.0 mg/kg/injection, schedule: Q01DX009 (ip), vehicle: saline with Tween-80
[2] = endpoint: mean survival time, dose: 200.0 mg/kg/injection, schedule: Q01DX009 (ip), vehicle: saline with Tween-80
[3] = endpoint: mean survival time, dose: 400.0 mg/kg/injection, schedule: Q01DX009 (ip), vehicle: saline with Tween-80
[4] = endpoint: mean survival time, dose: 100.0 mg/kg/injection, schedule: Q04DX002 (ip), vehicle: saline with Tween-80
[5] = endpoint: mean survival time, dose: 100.0 mg/kg/injection, schedule: Q04DX003 (ip), vehicle: saline with Tween-80
[6] = endpoint: mean survival time, dose: 200.0 mg/kg/injection, schedule: Q04DX003 (ip), vehicle: saline with Tween-80
[7] = endpoint: mean survival time, dose: 400.0 mg/kg/injection, schedule: Q04DX003 (ip), vehicle: saline with Tween-80
[8] = endpoint: mean survival time, dose: 75.0 mg/kg/injection, schedule: Q01DX001 (ip), vehicle: saline with Tween-80
[9] = endpoint: mean survival time, dose: 150.0 mg/kg/injection, schedule: Q01DX001 (ip), vehicle: saline with Tween-80
[10] = endpoint: mean survival time, dose: 300.0 mg/kg/injection, schedule: Q01DX001 (ip), vehicle: saline with Tween-80
[11] = endpoint: mean survival time, dose: 5.0 mg/kg/injection, schedule: Q01DX009 (ip), vehicle: saline with Tween-80
[12] = endpoint: mean survival time, dose: 10.0 mg/kg/injection, schedule: Q01DX009 (ip), vehicle: saline with Tween-80
[13] = endpoint: mean survival time, dose: 20.0 mg/kg/injection, schedule: Q01DX009 (ip), vehicle: saline with Tween-80
[14] = endpoint: mean survival time, dose: 75.0 mg/kg/injection, schedule: Q01DX001 (ip), vehicle: saline
[15] = endpoint: mean survival time, dose: 150.0 mg/kg/injection, schedule: Q01DX001 (ip), vehicle: saline
[16] = endpoint: mean survival time, dose: 300.0 mg/kg/injection, schedule: Q01DX001 (ip), vehicle: saline

Measured: T/C

O=NN(CCCl)C(=O)Oc1ccc(OC(=O)N(CCCl)N=O)cc1
inactive: endpoint: median survival time, dose: 3.12 mg/kg/injection, schedule: Q01DX009 (ip), vehicle: Klucel (hydroxypropylcellulose) (HPC) 104 % of control | endpoint: median survival time, dose: 6.25 mg/kg/injection, schedule: Q01DX009 (ip), vehicle: Klucel (hydroxypropylcellulose) (HPC) 114 % of control | endpoint: median survival time, dose: 12.5 mg/kg/injection, schedule: Q01DX009 (ip), vehicle: Klucel (hydroxypropylcellulose) (HPC) 118 % of control | endpoint: median survival time, dose: 25.0 mg/kg/injection, schedule: Q01DX009 (ip), vehicle: Klucel (hydroxypropylcellulose) (HPC) 113 % of control | endpoint: median survival time, dose: 50.0 mg/kg/injection, schedule: Q01DX009 (ip), vehicle: Klucel (hydroxypropylcellulose) (HPC) 93 % of control

COC(=O)C1(C)CCCC2(C)C3CC(O)C(C(C)C)=CC3(O)CCC12 (stereo not given)
inactive: [1] 100 % of control | [2] 96 % of control | [3] 86 % of control

Cc1cc(N(CC(C)Cl)CC(C)Cl)ccc1N=Nc1ccccc1C(=O)O (stereo not given)
inactive: endpoint: mean survival time, dose: 1.56 mg/kg/injection, schedule: Q01DX009 (ip), vehicle: Klucel (hydroxypropylcellulose) (HPC) 104 % of control | endpoint: mean survival time, dose: 3.12 mg/kg/injection, schedule: Q01DX009 (ip), vehicle: Klucel (hydroxypropylcellulose) (HPC) 104 % of control | endpoint: mean survival time, dose: 6.25 mg/kg/injection, schedule: Q01DX009 (ip), vehicle: Klucel (hydroxypropylcellulose) (HPC) 117 % of control and 109 % of control | endpoint: mean survival time, dose: 12.5 mg/kg/injection, schedule: Q01DX009 (ip), vehicle: Klucel (hydroxypropylcellulose) (HPC) 111 % of control

c1ccc(C[S][Sn]([c]2ccccc2)([c]2ccccc2)[c]2ccccc2)cc1
inactive: endpoint: mean survival time, dose: 25.0 mg/kg/injection, schedule: Q04DX002 (ip), vehicle: saline with Tween-80 91 % of control | endpoint: mean survival time, dose: 50.0 mg/kg/injection, schedule: Q04DX002 (ip), vehicle: saline with Tween-80 102 % of control | [4] 94 % of control

Nc1nnc[se]1
inactive: endpoint: mean survival time, dose: 3.12 mg/kg/injection, schedule: Q01DX009 (ip), vehicle: saline with Tween-80 102 % of control and 104 % of control | endpoint: mean survival time, dose: 6.25 mg/kg/injection, schedule: Q01DX009 (ip), vehicle: saline with Tween-80 109 % of control and 110 % of control | endpoint: mean survival time, dose: 12.5 mg/kg/injection, schedule: Q01DX009 (ip), vehicle: saline with Tween-80 116 % of control and 117 % of control and 110 % of control | endpoint: mean survival time, dose: 25.0 mg/kg/injection, schedule: Q01DX009 (ip), vehicle: saline with Tween-80 120 % of control | endpoint: mean survival time, dose: 50.0 mg/kg/injection, schedule: Q01DX009 (ip), vehicle: saline with Tween-80 120 % of control and 98 % of control | [1] 105 % of control | endpoint: median survival time, dose: 6.25 mg/kg/injection, schedule: Q01DX009 (ip), vehicle: saline with Tween-80 106 % of control | endpoint: median survival time, dose: 12.5 mg/kg/injection, schedule: Q01DX009 (ip), vehicle: saline with Tween-80 109 % of control | endpoint: median survival time, dose: 25.0 mg/kg/injection, schedule: Q01DX009 (ip), vehicle: saline with Tween-80 108 % of control

COc1ccc([N+](=O)[O-])cc1CO/N=C(/CCC(=O)O)C(=O)O
inactive: [5] 101 % of control | [6] 106 % of control | [7] 101 % of control

Nc1nc2c(ncn2-c2ccccc2Br)c(=O)[nH]1
inactive: [8] 101 % of control | [9] 100 % of control | [10] 101 % of control

CCN1/C(=C/C=C/C=C\C=C\c2sc3ccc4ccccc4c3[n+]2CC)Sc2ccc3ccccc3c21
inactive: endpoint: mean survival time, dose: 1.25 mg/kg/injection, schedule: Q01DX009 (ip), vehicle: saline with Tween-80 116 % of control and 117 % of control and 112 % of control | endpoint: mean survival time, dose: 2.5 mg/kg/injection, schedule: Q01DX009 (ip), vehicle: saline with Tween-80 116 % of control and 119 % of control and 120 % of control | [11] 114 % of control | [12] 117 % of control and 118 % of control | [13] 114 % of control and 116 % of control | endpoint: mean survival time, dose: 40.0 mg/kg/injection, schedule: Q01DX009 (ip), vehicle: saline with Tween-80 101 % of control and 112 % of control

CCCSP(SCCC)SCCC
inactive: endpoint: mean survival time, dose: 50.0 mg/kg/injection, schedule: Q01DX001 (ip), vehicle: Klucel (hydroxypropylcellulose) (HPC) 107 % of control | endpoint: mean survival time, dose: 100.0 mg/kg/injection, schedule: Q01DX001 (ip), vehicle: Klucel (hydroxypropylcellulose) (HPC) 96 % of control | endpoint: mean survival time, dose: 200.0 mg/kg/injection, schedule: Q01DX001 (ip), vehicle: Klucel (hydroxypropylcellulose) (HPC) 101 % of control

Cn1cc[n+](C)c1C(c1ccccc1)N1CCCCC1 (stereo not given)
inactive: endpoint: mean survival time, dose: 5.0 mg/kg/injection, schedule: Q01DX001 (ip), vehicle: saline with Tween-80 106 % of control | [11] 94 % of control | endpoint: mean survival time, dose: 10.0 mg/kg/injection, schedule: Q01DX001 (ip), vehicle: saline with Tween-80 96 % of control | [12] 100 % of control | endpoint: mean survival time, dose: 20.0 mg/kg/injection, schedule: Q01DX001 (ip), vehicle: saline with Tween-80 102 % of control | [13] 98 % of control

O=C1NC(=O)C2(CCN(Cc3ccccc3)CC2)C(=O)N1
inactive: [14] 96 % of control | [15] 98 % of control | [16] 96 % of control

CCCCC1(C2CCCC2)NC(C)(C)CC(C)O1 (stereo not given)
inactive: endpoint: mean survival time, dose: 100.0 mg/kg/injection, schedule: Q04DX003 (ip), vehicle: saline 97 % of control | endpoint: mean survival time, dose: 200.0 mg/kg/injection, schedule: Q04DX003 (ip), vehicle: saline 96 % of control | endpoint: mean survival time, dose: 400.0 mg/kg/injection, schedule: Q04DX003 (ip), vehicle: saline 89 % of control

O=C(O)c1ccc([N+](=O)[O-])cc1Br
inactive: [4] 96 % of control | endpoint: mean survival time, dose: 200.0 mg/kg/injection, schedule: Q04DX002 (ip), vehicle: saline with Tween-80 107 % of control | endpoint: mean survival time, dose: 400.0 mg/kg/injection, schedule: Q04DX002 (ip), vehicle: saline with Tween-80 100 % of control

CC(C)(CO)C(O)C(=O)NCCS(=O)(=O)c1ccc(F)cc1 (stereo not given)
inactive: endpoint: mean survival time, dose: 100.0 mg/kg/injection, schedule: Q01DX001 (ip), vehicle: saline with Tween-80 105 % of control | [1] 89 % of control | endpoint: mean survival time, dose: 200.0 mg/kg/injection, schedule: Q01DX001 (ip), vehicle: saline with Tween-80 95 % of control | [2] 89 % of control | endpoint: mean survival time, dose: 400.0 mg/kg/injection, schedule: Q01DX001 (ip), vehicle: saline with Tween-80 100 % of control

NC(C(=O)O)C(N)C(=O)O (stereo not given)
inactive: [1] 94 % of control | [2] 96 % of control | [3] 96 % of control

CN(CCCCl)CCCCl
inactive: [14] 103 % of control

NNc1ncnc2c1cnn2C1OC(CO)C(O)C1O (stereo not given)
inactive: endpoint: mean survival time, dose: 12.5 mg/kg/injection, schedule: Q01DX009 (ip), vehicle: other 103 % of control | endpoint: mean survival time, dose: 25.0 mg/kg/injection, schedule: Q01DX009 (ip), vehicle: other 103 % of control | endpoint: mean survival time, dose: 50.0 mg/kg/injection, schedule: Q01DX009 (ip), vehicle: other 103 % of control | endpoint: mean survival time, dose: 100.0 mg/kg/injection, schedule: Q01DX009 (ip), vehicle: other 110 % of control | endpoint: mean survival time, dose: 200.0 mg/kg/injection, schedule: Q01DX009 (ip), vehicle: other 112 % of control | endpoint: mean survival time, dose: 400.0 mg/kg/injection, schedule: Q01DX009 (ip), vehicle: other 89 % of control

CC(=O)c1cccc(N=C(N)N)c1
inactive: [8] 98 % of control | [9] 96 % of control | [10] 97 % of control

O=C(CCc1ccc(O)cc1)c1c(O)cc(O)cc1O
inactive: endpoint: mean survival time, dose: 50.0 mg/kg/injection, schedule: Q01DX009 (ip), vehicle: saline + alcohol 110 % of control | endpoint: mean survival time, dose: 100.0 mg/kg/injection, schedule: Q01DX009 (ip), vehicle: saline + alcohol 96 % of control | endpoint: mean survival time, dose: 200.0 mg/kg/injection, schedule: Q01DX009 (ip), vehicle: saline + alcohol 89 % of control | endpoint: mean survival time, dose: 400.0 mg/kg/injection, schedule: Q01DX009 (ip), vehicle: saline + alcohol 98 % of control

O=c1[nH]cnc2[nH]ccc12
inactive: [14] 110 % of control | [15] 96 % of control

Cc1o[nH]c(=O)c1C
inactive: [1] 96 % of control | [2] 98 % of control | [3] 98 % of control

Nc1ccccc1N=Cc1cccc([N+](=O)[O-])c1
inactive: [1] 94 % of control | [5] 101 % of control | [2] 96 % of control | [6] 98 % of control | [3] 100 % of control | [7] 101 % of control

CC(C)CCNCC(C)(C)OC(=O)c1ccc([N+](=O)[O-])cc1
inactive: [14] 97 % of control | [15] 101 % of control | [16] 102 % of control

Source: PubChem BioAssay AID256 (DTP/NCI, 2004)
